In the supplement of paper PMC10477900:
Where a name gives a salt, the structure may show the parent alone.

How the values were obtained:
HCT116 [1] = assay: viability inhibition vs untreated; higher = more cytotoxic; conditions: 72 h
HCT116 [2] = conditions: 72 h
Experimental: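 HCT116 control and MTA1-KO (CRISPR) HCT116 cells were seeded in 384-well plates (800 cells/well), treated 16 h later with 237 metabolism-related anticancer drugs at five doses (10 uM, 2 uM, 400 nM, 80 nM, 16 nM) for 72 h, two replicates; viability by CCK8. Values are % inhibition of viability relative to untreated cells, plus fitted IC50.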

SMILES	viability inhibition (HCT116 [1]; genotype: MTA1-KO, 16 nM) [%]	viability inhibition (HCT116 [1]; genotype: MTA1-KO, 80 nM) [%]	viability inhibition (HCT116 [1]; genotype: MTA1-KO, 400 nM) [%]	viability inhibition (HCT116 [1]; genotype: MTA1-KO, 2000 nM) [%]	viability inhibition (HCT116 [1]; genotype: MTA1-KO, 10000 nM) [%]	viability inhibition (HCT116 [1]; genotype: control, 16 nM) [%]	viability inhibition (HCT116 [1]; genotype: control, 80 nM) [%]	viability inhibition (HCT116 [1]; genotype: control, 400 nM) [%]	viability inhibition (HCT116 [1]; genotype: control, 2000 nM) [%]	viability inhibition (HCT116 [1]; genotype: control, 10000 nM) [%]	IC50 (HCT116 [2]; genotype: MTA1-KO) [µM]	IC50 (HCT116 [2]; genotype: control) [µM]
O=C(C[C@H]1NCCC[C@@H]1O)Cn1cnc2cc(Br)c(Cl)cc2c1=O [Halofuginone hydrobromide]	2.99	-4.56	73.6	106	103	-19.5	-8.31	72.1	111	101	0.374	0.371
NS(=O)(=O)c1cc2c(cc1Cl)NCNS2(=O)=O [Hydrochlorothiazide]	-4.21	-3.92	-3.75	-5.89	-2.82	18.6	15.8	14.2	-4.67	13.5	> 10	> 10
CCCC(=O)O[C@]1(C(=O)CO)CC[C@H]2[C@@H]3CCC4=CC(=O)CC[C@]4(C)[C@H]3[C@@H](O)C[C@@]21C [Hydrocortisone butyrate]	-3.78	-0.209	-6.9	-15.3	17.3	-10.8	-15	-3.07	-16.7	41.3	> 10	> 10
CC(C)n1nc(-c2ccc3oc(N)nc3c2)c2c(N)ncnc21 [INK 128]	-1.98	6.98	33.7	44.4	70	52.9	40.8	50.1	52.3	76.6	1.04	< 0.016
O=C(O)CNC(=O)c1c(O)c2ccccc2n(Cc2ccccc2)c1=O [IOX 2]	15.5	-17.5	-20.5	-22	9.66	-6.02	3.87	-7.43	-4.74	-0.498	> 10	> 10
NS(=O)(=O)c1ccc(S(=O)(=O)Nc2cccc3c(Cl)c[nH]c23)cc1 [Indisulam]	-0.89	30.5	59.8	90.3	96.6	-5.81	-7.51	10.8	90.9	90.2	0.129	0.445
Cn1cc(C[C@@H](N)C(=O)O)c2ccccc21 [Indoximod]	-22.6	-22	-24.2	-19	3.49	-15.9	-19.5	-14.6	-4.79	3.27	> 10	> 10
NNC(=O)c1ccncc1 [Isoniazid]	-5.84	-18.3	-14.4	-18.3	-0.042	-10.3	-11.9	-11.5	1.11	38	> 10	> 10
CC(C)CC(N)=O [Isovaleramide]	-15.6	-17.2	-11.3	-17.2	-13	-6.22	-6.16	-2.21	-1.96	-10.4	> 10	> 10
N#Cc1ccnc(N2C(=O)CC[C@H]2C(=O)N(c2cncc(F)c2)[C@H](C(=O)NC2CC(F)(F)C2)c2ccccc2Cl)c1 [Ivosidenib]	3.53	-8.17	-0.782	12.7	61.7	-4.33	-18.7	-4.67	-16.1	-2.68	5.82	> 10
O=C(Oc1ccc([N+](=O)[O-])cc1)N1CCC(C(O)(c2ccc3c(c2)OCO3)c2ccc3c(c2)OCO3)CC1 [JZL184]	6.97	15.2	21.9	37.7	62.3	9.18	-4.77	-6.67	-12.4	2.68	5.53	> 10
O=S(=O)(NCCSSCCNS(=O)(=O)c1cc(Cl)ccc1Cl)c1cc(Cl)ccc1Cl [KC7F2]	3.77	14.6	13.5	9.73	16.2	25.3	14.3	11.1	9.06	24.4	> 10	> 10
Nc1ccc(/C=C/C(=O)NCc2cc3cc(-c4ccc(C(=O)N5CCC(F)(F)CC5)cc4)cc(-c4ccc(F)cc4)c3o2)cn1 [KPT9274]	-17.2	-10	-24	-17.1	8.44	15.8	-9.31	7.28	14.9	13.4	> 10	> 10
O=c1c(O)c(-c2ccc(O)cc2)oc2cc(O)cc(O)c12 [Kaempferol]	9.79	3.08	3.45	10.9	39	7.5	18.7	-0.112	8.84	23.1	> 10	> 10
N#CCCCSC(=N)N [Kevetrin hydrochloride]	12.4	15	12.2	33.3	57.5	16.1	19.7	23	-4.7	23.9	2.38	> 10
COC(=O)[C@@H](N)CCCN=C(N)N[N+](=O)[O-] [L-NAME hydrochloride]	-9.14	-19.4	-19.9	-26	24.3	-17.9	-12.2	-11.4	-20.1	-19.3	> 10	> 10
NC(N)=NCCC[C@H](N)C(=O)O [L-arginine monohydrochloride]	-2.61	-19.3	-11.5	-6.84	12.2	-3.45	-8.59	1.36	1.49	23.5	> 10	> 10
COC(=O)c1ccc(O)c(NC(=O)COc2ccc(C34CC5CC(CC(C5)C3)C4)cc2)c1 [LW6]	1.16	1.05	-7.41	5.31	49.9	-13.6	-18.1	-10.6	-9.1	-7.79	9.47	> 10
CC(=O)O[C@H]1C[C@H](O[C@H]2[C@@H](O)C[C@H](O[C@H]3[C@@H](O)C[C@H](O[C@H]4CC[C@@]5(C)[C@H](CC[C@@H]6[C@@H]5C[C@@H](O)[C@]5(C)[C@@H](C7=CC(=O)OC7)CC[C@]65O)C4)O[C@@H]3C)O[C@@H]2C)O[C@H](C)[C@H]1O[C@@H]1O[C@H](CO)[C@@H](O)[C@H](O)[C@H]1O [Lanatoside C]	2.02	2.18	87.7	105	107	-11.4	12.6	88	99.5	101	0.286	0.145
OCc1ccc(-c2nn(Cc3ccccc3)c3ccccc23)o1 [Lificiguat]	-2.39	4.47	8.63	37.6	92.2	0.501	5.33	-0.629	22.8	100	2.7	2.38
C[C@@H](C(=O)Nc1ccc(Cl)cc1)[C@H]1CC[C@@H](c2ccnc3ccc(F)cc32)CC1 [Linrodostat]	1.54	1.21	3.39	14.8	44.2	10.9	21.6	17.7	28.7	22	> 10	> 10
O=C(O)c1nn(Cc2ccc(Cl)cc2Cl)c2ccccc12 [Lonidamine]	-2.77	-15.4	-12.8	-13.1	17.1	4.32	-14	-10.1	0.337	23.5	> 10	> 10
CC[C@H](C)C(=O)O[C@H]1C[C@@H](C)C=C2C=C[C@H](C)[C@H](CC[C@@H]3C[C@@H](O)CC(=O)O3)[C@H]21 [Lovastatin]	-10.2	-12.6	-7.31	-11.7	-8.01	2.13	-3.28	8.89	5.64	29.4	> 10	> 10
O=c1cc(-c2ccc(O)c(O)c2)oc2cc(O)cc(O)c12 [Luteolin]	-5.43	-9.09	-11.5	-2.12	7.81	2.79	2.36	3.47	12.7	12.7	> 10	> 10
O=[N+]([O-])c1ccc(Nc2nc(N3CCOCC3)nc(N3CCOCC3)n2)cc1 [MHY1485]	7.65	14.4	13.3	8.16	45.5	-9.75	7.66	14.9	23.1	74.8	> 10	4.59
Cc1ccc(Oc2nc3cc(-c4ccc(-c5ccccc5)cc4)c(Cl)cc3[nH]2)cc1C(=O)O [MK3903]	-12.7	-22.9	-10.6	0.304	68	11.1	8.79	24.8	19.4	59.8	5.67	7.34
Cc1ccccc1C(=O)N1CCc2cc(-c3nc(NC(=O)Cc4ccc5c(c4)OCO5)sc3C)ccc21 [ML385]	4.66	-3.65	-2.81	0.224	49.3	3.74	-1.5	2.66	-0.526	29.4	> 10	> 10
NCc1ccc(S(N)(=O)=O)cc1 [Mafenide hydrochloride]	-13	-12.9	-16.5	-13.4	-15.9	-4.74	6.87	-2.33	-2.58	-6.77	> 10	> 10
